Assay results from PubChem BioAssay (NCI).
Where “and” joins values, the source holds several entries; their conditions need not be identical. Identical values can stand only once.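 Dose response: 5 concentrations. Exposure: 48 h. Format: 96-well plates. Endpoint: linear interpolation; highest concentration if not reached. GI50: concentration for 50% inhibition of growth. The concentration for full growth arrest is given as TGI.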

Tests used:
Experiment in all cases: inhibition of tumour cell growth, NCI panel, 48 h
[1] = system: HT29 colon
[2] = system: MALME-3M melanoma
[3] = system: MOLT-4 leukemia
[4] = system: NCI-H460 lung
[5] = system: NCI-H522 lung
[6] = system: OVCAR-4 ovarian
[7] = system: OVCAR-5 ovarian
[8] = system: SF-295 CNS
[9] = system: SN12C renal
[10] = system: NCI/ADR-RES ovarian

Compound	TGI [1]	TGI [2]	TGI [3]	TGI [4]	TGI [5]	TGI [6]	TGI [7]	TGI [8]	TGI [9]	GI50 [3]	GI50 [5]	GI50 [9]	TGI [10]	GI50 [1]	GI50 [2]	GI50 [4]	GI50 [6]	GI50 [7]	GI50 [8]	GI50 [10]
O=C(CC(=O)C1CCOC1=O)C(=O)Nc1cccc(Cl)c1 (centres undefined)	> 100 µM	> 100 µM	> 100 µM	> 100 µM	> 100 µM	> 100 µM	> 100 µM	> 100 µM	> 100 µM											
Nc1c(-c2ccccc2-c2c(N)[n+]([O-])c3ccccc3[n+]2[O-])[n+]([O-])c2ccccc2[n+]1[O-]	> 100 µM	> 100 µM	8.42 µM	18.5 µM	6.87 µM	> 100 µM	> 100 µM	> 100 µM	> 100 µM											
COc1cc(/C=C2\[C@H]3c4c(c(OC)c(C)c(OC)c4OC)CC(C(=O)N2Cc2ccccc2)N3C)c(OC)c(C)c1OC	41.1 µM	47.3 µM	56.9 µM	32 µM	30.2 µM	> 100 µM	71.8 µM	41.5 µM	33.1 µM											
CCOC(=O)NC(=O)c1cn(C(CC)COC(=O)NCCCCCCNC(=O)OCC(CC)n2cc(C(=O)NC(=O)OCC)c(=O)[nH]c2=O)c(=O)[nH]c1=O (centres undefined)	> 100 µM	> 100 µM	> 100 µM	> 100 µM	> 100 µM	> 100 µM		> 100 µM	> 100 µM											
Nc1ccccc1C(=O)/C=C/c1c(O)ccc2ccccc12	> 100 µM	> 100 µM	> 100 µM	> 100 µM	> 100 µM	> 100 µM	> 100 µM	> 100 µM	> 100 µM											
CC(C)CCC[C@@H](C)C1CCC2[C@@H]3CC=C4C[C@@H](C(=O)NCCN(C)C)CC[C@]4(C)C3CC[C@@]21C (some centres undefined)	> 100 µM	> 100 µM	> 100 µM	> 100 µM	> 100 µM	> 100 µM	> 100 µM	> 100 µM	46.7 µM											
COc1c(C)n(CCO)ccc1=O	> 100 µM	> 100 µM	> 100 µM	> 100 µM	> 100 µM	> 100 µM	> 100 µM	> 100 µM	> 100 µM											
Nc1nc(-c2ccc(Cl)c([N+](=O)[O-])c2)cs1	> 100 µM	> 100 µM	> 100 µM	> 100 µM		> 100 µM	> 100 µM	> 100 µM	> 100 µM											
CCCC(=O)C1=C(O)C(Cc2c(O)c(C)c(O)c(C(=O)CCC)c2O)=C(O)C(C)(C)C1=O	> 50 µM		36.3 µM	43.1 µM		> 50 µM	33.9 µM	> 50 µM	> 50 µM											
Cc1ccc(C)c(N2C/C(=N\NC(=O)CC#N)C(c3nc4ccccc4s3)C(=O)C2=O)c1 (centres undefined)	> 100 µM	> 100 µM	> 100 µM	> 100 µM	> 100 µM	> 100 µM		> 100 µM	> 100 µM											
CCC(C)(O)c1cnc(CC(C)C)c(=O)n1O (centres undefined)	> 100 µM		48.6 µM	81.8 µM		> 100 µM	25.8 µM	> 100 µM	> 100 µM											
CC(C(=O)c1ccc(Cl)cc1)/C(=N/NC(=O)NN)C(=O)Nc1cccc(C(F)(F)F)c1 (centres undefined)	> 100 µM	> 100 µM	> 100 µM	> 100 µM		> 100 µM	> 100 µM	> 100 µM	> 100 µM											
ClC(Cl)=C1C(=C(Cl)Cl)C(Cl)(Cl)C1(Cl)Cl	7.85 µM	5.9 µM	0.715 µM and 2 µM	16.6 µM	0.304 µM	16 µM	6.25 µM	7.24 µM	2.13 µM	0.278 µM	0.287 µM	0.774 µM								
Cc1[nH]c2ccccc2c1C1Cc2ccccc2N1C(=O)C#Cc1ccc([N+](=O)[O-])cc1 (centres undefined)	> 100 µM	> 100 µM	> 100 µM	> 100 µM		> 100 µM	> 100 µM	> 100 µM	> 100 µM											
Cn1c(=O)nc2n(-c3cc(C(F)(F)F)cc(C(F)(F)F)c3)c3ccccc3nc-2c1=O	> 100 µM	> 100 µM	> 100 µM	> 100 µM		> 100 µM	> 100 µM	> 100 µM	> 100 µM											
COC(=O)/C(=N/O)C(C(=O)C=C(C)C)C(=O)C(=O)Nc1nc2ccc([N+](=O)[O-])cc2s1 (centres undefined)	> 100 µM	> 100 µM	72.9 µM	> 100 µM	> 100 µM	> 100 µM	> 100 µM	> 100 µM	> 100 µM											
COC(=O)C(=O)C(C(C)=O)C(=O)NCc1ccc(OC)c(OC)c1 (centres undefined)	> 100 µM	> 100 µM	> 100 µM	> 100 µM	> 100 µM	> 100 µM	> 100 µM	> 100 µM	> 100 µM											
COC(=O)C1C(O)C(C(=O)OC)C(C)N(C)C1C (centres undefined)	> 100 µM		> 100 µM	> 100 µM		> 100 µM	> 100 µM	> 100 µM	> 100 µM				> 100 µM							
COc1cccc(/C=N/[N-]C(=O)c2ccncc2)c1[O-].COc1cccc(/C=N/[N-]C(=O)c2ccncc2)c1[O-].[O]=[U](=[O])([OH2+])[OH2+]	> 100 µM	> 66.3 µM	> 100 µM	> 40.3 µM	11 µM	> 100 µM	> 100 µM	> 54.7 µM	32.5 µM	1.44 µM	2.05 µM	7.15 µM		30.7 µM	12.8 µM	3.46 µM	> 34.2 µM	6.79 µM	5.86 µM	
CCc1ccc2c(c1)C(=O)c1c-2n(CCCN=[N+]=[N-])c(=O)c2cc([N+](=O)[O-])ccc12	> 50 µM	> 50 µM		> 50 µM	> 50 µM	> 50 µM	> 50 µM	> 50 µM	> 50 µM		> 50 µM	> 50 µM	> 50 µM	> 50 µM	> 50 µM	> 50 µM	49.6 µM	> 50 µM	> 50 µM	> 50 µM
CCC1CN2CCc3cc(OC)c(OC)cc3C2CC1CC1c2cc(OC)c(OC)cc2CCN1C(=O)C1CCCN1 (centres undefined)	> 100 µM	37.3 µM	85.1 µM	74.8 µM	35.3 µM	87.9 µM	> 100 µM	> 100 µM	> 100 µM											

Compound	TGI [1]	TGI [2]	TGI [3]	TGI [4]	TGI [5]	TGI [6]	TGI [7]	TGI [8]	TGI [9]	GI50 [3]	GI50 [5]	GI50 [9]	TGI [10]	GI50 [1]	GI50 [2]	GI50 [4]	GI50 [6]	GI50 [7]	GI50 [8]	GI50 [10]
O=C(Nc1cc(Cl)ccc1O)c1ccc(Nc2ccnc(C(F)(F)F)c2)cc1	> 100 µM	5.49 µM	6.6 µM	6.91 µM		> 100 µM	> 100 µM	7.03 µM	32 µM	1.75 µM		2.65 µM	> 100 µM	6.35 µM	1.79 µM	2.49 µM	3.56 µM	3.61 µM	2.2 µM	2.93 µM
Cn1cc(-c2csc(-c3cn(CCCCN4CCCCC4)c4ccccc34)n2)c2cccnc21	3.1 µM			3.44 µM		4.04 µM	3.06 µM	3.06 µM						1.58 µM		1.83 µM	1.96 µM	1.6 µM	1.64 µM	
COC(=O)/C([Se]c1c(C)cc(C)cc1C)=C(/[Se]c1c(C)cc(C)cc1C)C(=O)OC	> 100 µM	> 100 µM	> 100 µM	> 100 µM	> 100 µM	> 100 µM	> 100 µM	> 100 µM	> 100 µM											
CC(C)(C)c1ccc2c(c1)S(=O)(=O)Nc1ccc(Cl)cc1NS(=O)(=O)c1cc(C(C)(C)C)ccc1OCCOCCOCCO2	> 100 µM	80 µM	> 100 µM	> 100 µM		28 µM	> 100 µM	> 100 µM	> 100 µM											
CCOP(=O)(OCC)C(C(=O)OC)C(=O)C(=O)Nc1ccc(Cl)cc1Cl (centres undefined)	> 100 µM	> 100 µM	> 100 µM	> 100 µM	> 100 µM	> 100 µM	> 100 µM		> 100 µM											
NC(=O)C(=O)CC(=O)c1ccccc1NC1=CC(=O)C(=O)c2ccccc21	> 100 µM	> 59 µM	> 100 µM	> 100 µM	> 100 µM	> 100 µM	> 100 µM		> 100 µM											
CC1(C)CN=C(NN=C(/C=C/c2ccc(C(F)(F)F)cc2)/C=C/c2ccc(C(F)(F)F)cc2)NC1	2.14 µM	3.78 µM		3.2 µM	2.57 µM	2.72 µM	2.68 µM	3.28 µM	3.33 µM		1.25 µM	1.46 µM	3.03 µM	0.785 µM	1.86 µM	1.47 µM	1.29 µM	1.32 µM	1.72 µM	1.4 µM
CC(C)=C1CCC(CN(C)C)C1=O (centres undefined)	41.1 µM	30.2 µM	32.9 µM	> 100 µM	0.4 µM	28.4 µM	> 100 µM	> 100 µM	33.6 µM											
O=C(N/C(=C\c1ccc([N+](=O)[O-])cc1)c1nc2ccccc2[nH]1)c1ccccc1	> 100 µM	> 100 µM	> 100 µM	> 100 µM	> 100 µM	> 100 µM	> 100 µM	> 100 µM	> 100 µM											
CCC/C=C/C=C/C1CC(O)C(O)C(=O)C1CO (centres undefined)	> 100 µM			> 100 µM	> 100 µM	> 100 µM	> 100 µM	> 100 µM	> 100 µM				> 100 µM							
O=C(Cc1nc2c3c(ccc2[nH]c1=O)C(=O)c1ccccc1C3=O)C(=O)Nc1ccccc1[N+](=O)[O-]	41.7 µM	36.6 µM	23.2 µM	97.6 µM	18 µM	32.4 µM	41.1 µM													
CCOCN1COCN(C)C1=O	> 100 µM	> 100 µM		> 100 µM		> 100 µM	> 100 µM	> 100 µM	> 100 µM											
O=C(O)c1cccc(COc2ccc([N+](=O)[O-])cc2Cl)c1				> 100 µM	93 µM	> 100 µM	> 100 µM	> 100 µM			18.4 µM		> 100 µM			> 100 µM	> 100 µM	> 100 µM	> 100 µM	> 100 µM
CN(C(=O)c1ccc([N+](=O)[O-])cc1)c1ccccc1	> 100 µM	> 100 µM	> 100 µM	> 100 µM	> 100 µM	> 100 µM	> 100 µM	> 100 µM	> 100 µM											
Cc1ccccc1C1=[N+]([O-])c2ccc(Cl)cc2C1=O	20.3 µM	30.6 µM	24.3 µM	30.9 µM	23.9 µM		37.8 µM	29.1 µM	28.5 µM											
O=C(/C(=C\c1c(-c2ccccc2)[nH]c2ccccc12)S(=O)(=O)c1ccccc1)c1ccccc1	> 100 µM	> 100 µM		> 100 µM	> 100 µM	> 100 µM	> 100 µM	> 100 µM	> 100 µM		91.8 µM	> 100 µM	> 100 µM	> 100 µM	> 100 µM	5.9 µM	6.58 µM	> 100 µM	3.47 µM	> 100 µM
N#CC(=Nc1ccccc1N(C(=O)c1ccccc1)C(=O)c1ccccc1)c1ccccc1	> 100 µM	> 100 µM	> 100 µM	> 100 µM	> 100 µM	> 76.2 µM	> 100 µM	> 100 µM	> 100 µM											
O=[N+]([O-])c1cccc(C2=NOC(C3CCCCC3)C2)c1 (centres undefined)	> 100 µM	> 100 µM	> 100 µM	> 100 µM	> 100 µM	> 100 µM	> 100 µM	> 100 µM	> 100 µM											
c1coc(-c2c3ccc(=[N+]4CCCCC4)cc-3oc3cc(N4CCCCC4)ccc23)c1		0.184 µM	0.903 µM			0.883 µM	1.12 µM	0.417 µM	0.278 µM	0.0463 µM		0.0591 µM			0.0423 µM		0.0707 µM	0.0946 µM	0.0937 µM	
Cc1cc2c(c(C(N)=O)c1C)-c1ccccc1C2=O	> 100 µM	> 100 µM	> 100 µM	> 100 µM	> 100 µM	> 100 µM	> 100 µM	> 100 µM	> 100 µM											
